From PubChem BioAssay AID687005 (Broad Institute, 2013) come the findings set out here.

Where “and” joins values, the source holds several entries; their conditions need not be identical. Equal values may be shown once. Records with an inconclusive call do not appear. Calls of active or inactive are those of the source.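 How the source made its calls: active means Compounds that reduce signal, with fitted half-maximal dose at or under twice the top valid tested dose; inconclusive means Poor fit, or flat curve losing 30 to 70% of signal; inactive means Potency past limit, flat within 30%, or opposite direction.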

Test system in one assay: not listed separately
The experiment in a line: HEK293T cell cytotoxicity, dose response, cytotoxicity control, ATP luminescence, cherry-pick samples (AID 687005). The conditions noted are these: HEK293T viability, ATP luminescence (CellTiter-Glo), 48 h; at 23.5 µM (top of the series).
Consider `CO[C@@H]1CN(C)C(=O)c2ccc(NC(C)=O)cc2OC[C@@H](C)N(C(=O)c2ccccn2)C[C@H]1C`, for which the activity change, negative = cytotoxicity was 14.8% (inactive).

`C[C@@H]1CN([C@H](C)CO)C(=O)c2cc(NC(=O)CCC(F)(F)F)ccc2O[C@@H](C)CCCCO[C@@H]1CN(C)C(=O)c1ccncc1`: the activity change, negative = cytotoxicity was -15.4% (inactive).

With `COc1ccc(NC(=O)N(C)C[C@@H]2OCCCC[C@@H](C)Oc3ccc(NC(=O)Nc4ccc5c(c4)OCO5)cc3C(=O)N([C@@H](C)CO)C[C@H]2C)cc1`, the activity change, negative = cytotoxicity was -17% (inactive).

Turning to `Cc1cc(C(=O)Nc2ccc3c(c2)C(=O)N(C)[C@H]2CC[C@@H](CC(=O)N[C@@H](C)c4ccccc4)O[C@H]2CO3)no1`, the activity change, negative = cytotoxicity is -36.7% (inactive).

For the molecule `CCCNC(=O)C[C@@H]1CC[C@@H]2[C@@H](COc3ccc(NC(=O)CCC)cc3C(=O)N2C)O1`, the activity change, negative = cytotoxicity is 9.04% (inactive).

The same assay, now with this note: HEK293T viability, ATP luminescence (CellTiter-Glo), 48 h; at 26 µM (top of the series).
As to `C[C@H](CO)N1C[C@H](C)[C@H](CN(C)S(=O)(=O)c2cn(C)cn2)Oc2ncc(/C=C/c3ccccc3)cc2C1=O`, the activity change, negative = cytotoxicity was 5.3% (inactive).

For the molecule `C[C@H]1CN([C@@H](C)CO)C(=O)Cc2cc(NC(=O)Nc3ccccc3)ccc2O[C@H]1CN(C)C(=O)Nc1ccc2c(c1)OCO2`, the activity change, negative = cytotoxicity was -2.2% (inactive).

Take `O=C(NC(=S)Nc1ccccc1N1CCOCC1)c1ccc(Br)cc1`: the activity change, negative = cytotoxicity was -8.37% (inactive).

`Cc1ccc(S(=O)(=O)Nc2ccc3c(c2)C(=O)N([C@@H](C)CO)C[C@H](C)[C@H](CN(C)S(=O)(=O)c2ccc(Cl)cc2)OCCCC[C@@H](C)O3)cc1`: the activity change, negative = cytotoxicity is -26.9% (inactive).

Consider `C[C@H](NC(=O)C[C@@H]1C=C[C@H](NC(=O)CN2CCOCC2)[C@H](CO)O1)c1ccccc1`, for which the activity change, negative = cytotoxicity was -20.9% (inactive).

As to `CCOC(=O)NC(=S)Nc1ccc(C(C)(C)C)cc1`, the activity change, negative = cytotoxicity was -11.3% (inactive).

Take `CO[C@@H]1CN(C)C(=O)c2ccc(NC(=O)Nc3ccccc3)cc2OC[C@H](C)N(C(C)=O)C[C@H]1C`: the activity change, negative = cytotoxicity was -7.15% (inactive).

Take `Cc1cc(C)c(NC(=O)C2CCCN2C)c(C)c1` (stereo not drawn): the activity change, negative = cytotoxicity is 10.5% (inactive).

Take `COc1ccc(-c2cnc3c(c2)C(=O)N([C@@H](C)CO)C[C@@H](C)[C@@H](CN(C)S(C)(=O)=O)O3)cc1`: the activity change, negative = cytotoxicity is 6.27% (inactive).

For `C[C@@H]1CN([C@@H](C)CO)C(=O)CCCn2cc(nn2)CO[C@@H]1CN(C)C(=O)NC1CCCC1`, the activity change, negative = cytotoxicity is 5.64% (inactive).

As to `COCCNC(=O)C[C@@H]1CC[C@@H]2[C@H](COC[C@@H](O)CN2S(=O)(=O)c2ccccc2C)O1`, the activity change, negative = cytotoxicity is 31.5% (inactive).

Consider `C/C=C/c1ccc([C@@H]2[C@@H](CNC(=O)C3CC3)N(C(=O)CC)[C@H]2CO)cc1`, for which the activity change, negative = cytotoxicity is -5.25% (inactive).

Consider `Cc1noc(C)c1S(=O)(=O)Nc1ccc2c(c1)C(=O)N([C@@H](C)CO)C[C@H](C)[C@@H](CN(C)Cc1ccc3c(c1)OCO3)OCCCC[C@@H](C)O2`, for which the activity change, negative = cytotoxicity was 45.4% (inactive).

On to `C[C@@H]1CN([C@H](C)CO)C(=O)c2cccc(NC(=O)C3CC3)c2O[C@H]1CN(C)Cc1ccc(C(=O)O)cc1`, for which the activity change, negative = cytotoxicity is -12.7% (inactive).

In the case of `O=C(c1cccnc1)N1C[C@H]2[C@@H](c3ccccc31)[C@@H](CO)N2C(=O)Nc1ccc(F)cc1`, the activity change, negative = cytotoxicity was -19.7% (inactive).

As for `C[C@H](CO)N1C[C@H](C)[C@H](CN(C)CC2CCCCC2)Oc2c(NS(C)(=O)=O)cccc2C1=O`, the activity change, negative = cytotoxicity was 32.2% (inactive).

With `CC(C)NC(=O)Nc1ccc2c(c1)C(=O)N([C@@H](C)CO)C[C@@H](C)[C@H](CN(C)Cc1ccncc1)OCCCC[C@@H](C)O2`, the activity change, negative = cytotoxicity was 75.6% (inactive).

Take `O=C(NCCN1CCCCC1)[C@@H]1N[C@@H]2c3ccc(-c4ccncc4)c(=O)n3C[C@@H]2[C@H]1CO`: the activity change, negative = cytotoxicity was -26.2% (inactive).

For `COc1ccc(NC(=O)N(C)C[C@@H]2OCCCC[C@H](C)Oc3ccc(NC(=O)Nc4ccc5c(c4)OCO5)cc3C(=O)N([C@H](C)CO)C[C@@H]2C)cc1`, the activity change, negative = cytotoxicity was 4.66% (inactive).

In the case of `COC(=O)N(C)C[C@H]1OCc2cn(nn2)CCCC(=O)N([C@@H](C)CO)C[C@@H]1C`, the activity change, negative = cytotoxicity was -1.3% (inactive).

For the molecule `O=C(c1cccc(F)c1)N1CCCCN2[C@@H](CO)[C@H](c3ccc(-c4ccncc4)cc3)[C@@H]2C1`, the activity change, negative = cytotoxicity was 2.55% (inactive).

Regarding `O=C(C[C@@H]1CC[C@H]2[C@@H](COC[C@@H](O)CN2C(=O)Nc2ccc(Cl)cc2)O1)NCCc1ccncc1`, the activity change, negative = cytotoxicity was -9.46% (inactive).

As to `CCC(=O)N1C[C@H](O)COC[C@@H]2O[C@@H](CC(=O)NCc3ccccc3Cl)CC[C@H]21`, the activity change, negative = cytotoxicity is 1.37% (inactive).

Consider `Cc1cc(C)c(NC(=O)C2CCC(=O)N2)c(C)c1` (stereo not drawn), for which the activity change, negative = cytotoxicity was 12.8% (inactive).

Turning to `O=C(COc1ccc2c(c1)CCC2)NCc1ccc(Cl)cc1`, the activity change, negative = cytotoxicity was 18.5% (inactive).

Take `COc1ccc(N(CC(=O)NCCSCc2ccc(C)cc2)S(=O)(=O)c2ccccc2)cc1`: the activity change, negative = cytotoxicity is -65.3% (inactive).

On to `O=C(c1cccc(F)c1)N1C[C@H]2[C@@H](c3ccccc31)[C@@H](CO)N2Cc1cocn1`, for which the activity change, negative = cytotoxicity is -0.298% (inactive).

As to `CO[C@H]1CN(C)C(=O)c2cc(NC(=O)c3ccc4c(c3)OCO4)ccc2OC[C@@H](C)N(CC2CC2)C[C@H]1C`, the activity change, negative = cytotoxicity is -5.62% (inactive).

Still in this assay, the particulars now being: HEK293T viability, ATP luminescence (CellTiter-Glo), 48 h; at 28.5 µM (top of the series).
As for `C[C@@H]1CN([C@@H](C)CO)C(=O)CCCn2cc(nn2)CO[C@@H]1CN(C)C(=O)CCCN(C)C`, the activity change, negative = cytotoxicity was 6.9% (inactive).

For the molecule `CNC(=O)CN(c1ccccc1)S(=O)(=O)c1ccc(F)cc1`, the activity change, negative = cytotoxicity was -7.63% (inactive).

Still in this assay, the particulars now being: HEK293T viability, ATP luminescence (CellTiter-Glo), 48 h; at 30 µM (top of the series).
For `COC(=O)C1=C(C)N(CC(C)C)C(=S)NC1c1cccc(F)c1` (stereo not drawn), the activity change, negative = cytotoxicity was -13.7% (inactive).

Another assay has as its system HEK293T viability, ATP luminescence (CellTiter-Glo), 48 h. The assay is described as above.
Details: not given
For the molecule `COc1ccc(C(=O)NC(=S)Nc2cccc(Cl)c2N2CCOCC2)cc1[N+](=O)[O-]`, the AC50 (in general, the concentration giving half of the maximal activity seen) is 25.1 µM and 6.55 µM.

Take `COC(=O)C1=C(C)N(Cc2ccccc2)C(=S)NC1c1cccc(OC)c1` (stereo not drawn): the AC50 was 13.1 µM and 4.84 µM.
